The source of these data is PubChem BioAssay (NCI).

The structures appear in SMILES notation.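 48-hour exposure; five concentrations; linearly interpolated endpoints. Abbreviation: GI50, concentration required for 50% inhibition of growth. The concentration for full growth arrest is given as TGI.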 Where a SMILES comes first, the peptide text is derived from it. The star is where a group is joined. Cbz = O=C(OCc1ccccc1)*; Bn = c1ccc(C*)cc1

Some test systems named below: IGROV1 ovarian; HL-60(TB) leukemia; COLO 205 colon; SW-620 colon; MDA-MB-231 breast; HOP-62 NSCLC; UO-31 renal; EKVX NSCLC; OVCAR-8 ovarian; LOX IMVI melanoma; MALME-3M melanoma.
Assay in all cases: DTP human tumour cell line panel, 48 h

For the compound `COC(=O)C(Cc1ccc(O)cc1)NC(=O)C(COCc1ccccc1)NC(=O)OCc1ccccc1` (stereo not given) (Cbz-Ser(Bn)-Tyr-OMe; configuration not given here), the TGI is 32.3 µM in the experiment on IGROV1 ovarian; above 100 µM in the experiment with HL-60(TB) leukemia; 31.1 µM in the experiment with COLO 205 colon; 32.9 µM in the experiment with SW-620 colon; 33.1 µM in the experiment on MDA-MB-231 breast; 33.6 µM in the experiment on HOP-62 NSCLC. Further, the TGI in the experiment with UO-31 renal was found to be 36.5 µM; in the experiment with EKVX NSCLC, 43.8 µM; with OVCAR-8 ovarian it was 31.8 µM; with LOX IMVI melanoma, 41 µM; in the experiment with MALME-3M melanoma, 39.6 µM.

In the case of `C1CSCCSCSCCS1`, the TGI in the experiment on IGROV1 ovarian, with COLO 205 colon, with SW-620 colon, in the experiment on MDA-MB-231 breast, with HOP-62 NSCLC and in the experiment on UO-31 renal was above 100 µM each time. Also, the TGI in the experiment on EKVX NSCLC, in the experiment with OVCAR-8 ovarian and with LOX IMVI melanoma was above 100 µM throughout.

On to `CC1C[C@]2(C[C@@H](C)C(=O)O2)OC2CC3(C)C4CCC5C(C)(C)OC(=O)CC[C@@]56C[C@@]46CC[C@]3(C)C12` (stereo not given in full), for which the TGI in the experiment on IGROV1 ovarian, with HL-60(TB) leukemia, with COLO 205 colon, in the experiment on SW-620 colon, in the experiment with EKVX NSCLC and in the experiment on OVCAR-8 ovarian was above 100 µM in each case. The TGI with LOX IMVI melanoma and with MALME-3M melanoma was above 100 µM each time.

Regarding `NC(CCP(=O)(O)O)C(=O)O` (stereo not given), the TGI in the experiment with IGROV1 ovarian, in the experiment on HL-60(TB) leukemia, with SW-620 colon, with MDA-MB-231 breast, with HOP-62 NSCLC and in the experiment on UO-31 renal was above 100 µM each time. In addition, the TGI with EKVX NSCLC, in the experiment with OVCAR-8 ovarian, with LOX IMVI melanoma and in the experiment on MALME-3M melanoma was above 100 µM each time.

Turning to `CS(=O)(=O)c1ccc2nc(-c3ccc(O)cc3)sc2c1`, the TGI was 34.9 µM with IGROV1 ovarian; 63.9 µM in the experiment with HL-60(TB) leukemia; above 100 µM with COLO 205 colon; 38.4 µM with SW-620 colon; 42.5 µM with MDA-MB-231 breast; 28 µM in the experiment with UO-31 renal. Also, the TGI with EKVX NSCLC amounted to 23.9 µM; in the experiment on OVCAR-8 ovarian, 42.7 µM; in the experiment with LOX IMVI melanoma it was 45.5 µM; with MALME-3M melanoma, 31 µM.

Regarding `O=S(=O)(O)c1ccc2c(N=Nc3ccc(S(=O)(=O)O)c4ccccc34)c(O)c(S(=O)(=O)O)cc2c1`, the TGI with IGROV1 ovarian, with HL-60(TB) leukemia, in the experiment on COLO 205 colon, with SW-620 colon, in the experiment with MDA-MB-231 breast and in the experiment with HOP-62 NSCLC was above 100 µM in each case. Further, the TGI in the experiment with UO-31 renal, in the experiment on EKVX NSCLC, in the experiment with OVCAR-8 ovarian, with LOX IMVI melanoma and in the experiment with MALME-3M melanoma was above 100 µM throughout.

As for `O=C(Nc1ccc(Cl)cc1)c1cc([N+](=O)[O-])ccc1O`, the TGI is 69.5 µM in the experiment with IGROV1 ovarian; 8.62 µM in the experiment on HL-60(TB) leukemia; 12.6 µM in the experiment with COLO 205 colon; above 53.3 µM with SW-620 colon; 9.26 µM in the experiment on HOP-62 NSCLC; 7.65 µM in the experiment with UO-31 renal. Also, the TGI is 31.3 µM in the experiment on EKVX NSCLC, 30.7 µM in the experiment on OVCAR-8 ovarian, 19.5 µM in the experiment with LOX IMVI melanoma and 8.57 µM in the experiment with MALME-3M melanoma.

Regarding `O=[N+]([O-])c1cc(N=Nc2c(O)ccc3cc(S(=O)(=O)O)ccc23)c(O)c([N+](=O)[O-])c1`, the TGI in the experiment with IGROV1 ovarian, in the experiment on HL-60(TB) leukemia, in the experiment on COLO 205 colon, in the experiment on SW-620 colon, in the experiment with MDA-MB-231 breast and in the experiment with HOP-62 NSCLC was above 100 µM in each case. Moreover, the TGI in the experiment with UO-31 renal, in the experiment with EKVX NSCLC, with OVCAR-8 ovarian, in the experiment on LOX IMVI melanoma and in the experiment with MALME-3M melanoma was above 100 µM each time.

`CCCCSCC(NC(=O)/C=C/c1c(C)[nH]c(=O)[nH]c1=O)C(=O)OC` (stereo not given): the TGI is 316 µM in the experiment with IGROV1 ovarian; 206 µM in the experiment with HL-60(TB) leukemia; 112 µM with COLO 205 colon; 346 µM in the experiment on SW-620 colon; 252 µM in the experiment on HOP-62 NSCLC; 243 µM with UO-31 renal. For the same compound, the TGI in the experiment with EKVX NSCLC was 188 µM; in the experiment with OVCAR-8 ovarian, 246 µM; with LOX IMVI melanoma, above 450 µM; in the experiment with MALME-3M melanoma, 65.7 µM.

With `c1ccc(-c2n(Cc3ccc4ccccc4c3)c3ccccc3[n+]2Cc2ccc3ccccc3c2)cc1`, the GI50 in the experiment on SW-620 colon is 0.331 µM; with MDA-MB-231 breast it was 0.289 µM; with UO-31 renal, 1.36 µM; in the experiment with MALME-3M melanoma it was 0.242 µM. The TGI is 1.33 µM in the experiment with SW-620 colon, 1.3 µM with MDA-MB-231 breast, 2.75 µM in the experiment on UO-31 renal and 0.768 µM with MALME-3M melanoma.

`COc1ccc(-c2oc3cc(OC(C)=O)cc(OC(C)=O)c3c(=O)c2OC)cc1`: the TGI in the experiment on IGROV1 ovarian came out at 38 µM; with HL-60(TB) leukemia, 33.9 µM; in the experiment with COLO 205 colon, 33.9 µM; in the experiment on SW-620 colon, 39.7 µM; with MDA-MB-231 breast it was 63.7 µM; in the experiment on HOP-62 NSCLC, 42.4 µM. Further, the TGI was found to be 51.7 µM with UO-31 renal; 47.8 µM in the experiment with EKVX NSCLC; 53.6 µM with OVCAR-8 ovarian; 27.9 µM with LOX IMVI melanoma; 65.6 µM with MALME-3M melanoma.

As to `O=C1c2cccc(O)c2C(=O)c2c(O)cccc21`, the TGI in the experiment with IGROV1 ovarian, in the experiment on COLO 205 colon, in the experiment on SW-620 colon, in the experiment with HOP-62 NSCLC, with UO-31 renal and in the experiment on EKVX NSCLC was above 100 µM throughout. Further, the TGI in the experiment with OVCAR-8 ovarian and in the experiment with LOX IMVI melanoma was above 100 µM in each case.

`C[n+]1c2ccccc2c(CNCC(=O)O)c2ccccc21`: the TGI with IGROV1 ovarian worked out at 22.6 µM; in the experiment on COLO 205 colon it was 2.9 µM; in the experiment on SW-620 colon, 2.24 µM; in the experiment with HOP-62 NSCLC it was 19.1 µM; with UO-31 renal, 22.8 µM; in the experiment on EKVX NSCLC, 12.3 µM. The TGI with OVCAR-8 ovarian was found to be 7.84 µM; in the experiment with MALME-3M melanoma it was 28.6 µM.

Take `CC(=O)OCC1OC(NC(=O)N(CCCl)N=O)C(OC(C)=O)C(OC(C)=O)C1OC(C)=O` (stereo not given): the concentration for total growth inhibition (TGI) in the experiment on IGROV1 ovarian, in the experiment with HL-60(TB) leukemia, with COLO 205 colon, with SW-620 colon, in the experiment with HOP-62 NSCLC and in the experiment on UO-31 renal was above 100 µM in each case. Also, the TGI with EKVX NSCLC, in the experiment on OVCAR-8 ovarian, in the experiment with LOX IMVI melanoma and with MALME-3M melanoma was above 100 µM in each case.

On to `NC(=O)c1ccc([N+](=O)[O-])cc1`, for which the total growth inhibition concentration (TGI) in the experiment with IGROV1 ovarian, with COLO 205 colon, with SW-620 colon, in the experiment with HOP-62 NSCLC, in the experiment on UO-31 renal and in the experiment on EKVX NSCLC was above 100 µM in each case. Moreover, the TGI in the experiment with OVCAR-8 ovarian, with LOX IMVI melanoma and with MALME-3M melanoma was above 100 µM in each case.

As for `C=CCNC1=C2C[C@@H](C)C[C@H](OC)[C@H](O)[C@@H](C)/C=C(\C)[C@H](OC(N)=O)[C@@H](OC)/C=C\C=C(/C)C(=O)NC(=CC1=O)C2=O`, the TGI in the experiment with IGROV1 ovarian was found to be 15.1 µM; in the experiment with HL-60(TB) leukemia, 1.06 µM; in the experiment with COLO 205 colon it was 1.67 µM; in the experiment on SW-620 colon, 33.9 µM; with MDA-MB-231 breast it was 23.6 µM; with HOP-62 NSCLC, 23.1 µM. Also, the TGI was determined as 21.4 µM in the experiment with UO-31 renal; 31.4 µM in the experiment with EKVX NSCLC; 46 µM in the experiment on OVCAR-8 ovarian; 2 µM with LOX IMVI melanoma; 3.39 µM in the experiment on MALME-3M melanoma.

For the compound `COc1ccc2c(c1)C(OC)C1c3c(cc4c(c3-2)OCO4)CCN1C` (stereo not given), the TGI is 14.8 µM with IGROV1 ovarian; above 20.6 µM in the experiment on HL-60(TB) leukemia; above 43.6 µM in the experiment with COLO 205 colon; 18.7 µM with SW-620 colon; 9.59 µM in the experiment with MDA-MB-231 breast; 8.34 µM in the experiment with HOP-62 NSCLC. In addition, the TGI with UO-31 renal was 4.59 µM; in the experiment with EKVX NSCLC it was 24.3 µM; in the experiment with OVCAR-8 ovarian, 13.9 µM; with LOX IMVI melanoma, above 32 µM; in the experiment with MALME-3M melanoma, 3.97 µM.

As to `N=C(N)c1ccc(-c2ccc(-c3ccc4ccccc4c3)s2)s1`, the GI50 in the experiment on HL-60(TB) leukemia was 1.81 µM; in the experiment on COLO 205 colon, 1.63 µM; in the experiment on SW-620 colon it was 1.91 µM; in the experiment with MDA-MB-231 breast, 1.85 µM; in the experiment with HOP-62 NSCLC, 2.08 µM; in the experiment on UO-31 renal it was 1.97 µM. For the same compound, the GI50 in the experiment with EKVX NSCLC is 2.46 µM; in the experiment on MALME-3M melanoma, 3.1 µM. The TGI in the experiment on HL-60(TB) leukemia amounted to 5.11 µM; in the experiment on COLO 205 colon it was 3.17 µM; in the experiment on SW-620 colon, 3.52 µM; with MDA-MB-231 breast, 3.73 µM; in the experiment with HOP-62 NSCLC it was 5.24 µM; in the experiment on UO-31 renal it was 4.49 µM. For the same compound, the TGI was 7.44 µM in the experiment on EKVX NSCLC and 9.36 µM in the experiment on MALME-3M melanoma.

Consider `CCn1c(=O)c(C(=O)O)c(Cl)c2cc3c(cc21)OCO3`, for which the TGI with IGROV1 ovarian, in the experiment on HL-60(TB) leukemia, in the experiment with COLO 205 colon, in the experiment on SW-620 colon, in the experiment with HOP-62 NSCLC and in the experiment with UO-31 renal was above 100 µM throughout. Besides, the TGI in the experiment on EKVX NSCLC, with OVCAR-8 ovarian, in the experiment on LOX IMVI melanoma and in the experiment with MALME-3M melanoma was above 100 µM in each case.

Take `C[P+](c1ccccc1)(c1ccc(Cl)cc1)c1ccc(Cl)cc1`: the TGI is 21.8 µM in the experiment on IGROV1 ovarian; 22 µM in the experiment with COLO 205 colon; above 100 µM with SW-620 colon; 82 µM in the experiment on MDA-MB-231 breast; 70.4 µM in the experiment with HOP-62 NSCLC; above 100 µM in the experiment with UO-31 renal. In addition, the TGI in the experiment on EKVX NSCLC worked out at 99.3 µM; in the experiment with OVCAR-8 ovarian, 36.6 µM; with LOX IMVI melanoma, 32.5 µM; in the experiment on MALME-3M melanoma it was 19.6 µM.

As for `COc1ccc(N2C(=O)/C(=C\c3ccccc3)SC2c2cc(OC)c(OC)c(OC)c2)cc1` (stereo not given), the TGI in the experiment on COLO 205 colon, with MDA-MB-231 breast, with HOP-62 NSCLC, in the experiment with UO-31 renal, in the experiment with EKVX NSCLC and in the experiment with OVCAR-8 ovarian was above 100 µM throughout. The TGI with LOX IMVI melanoma and in the experiment on MALME-3M melanoma was above 100 µM in each case.

Usually TGI stands for the concentration at which net growth stops. Read a low TGI as more potent growth arrest. Broadly, the GI50 is the concentration that inhibits growth by half.
